Laboratory results taken from US7205295B2, “Benzoxazin-3-ones and derivatives thereof as therapeutic agents” (Warner-Lambert Company LLC, priority 2002, dated 2007).
Where a name gives a salt, the structure may show the parent alone.

Target: T1, PI3Kγ (p101/p110γ protein) (Homo sapiens, UniProt P48736)
T1 construct: HA; made in house; host or cells: Spodoptera frugiperda (Sf9) cells, baculovirus co-infection
Assay: PI3Kγ In Vitro Kinase Assay
Format: biochemical
Details: purified recombinant p101/p110γ with G protein β1/γ2 subunits; 20 μM ATP, 25 μM PIP2; 20 minutes at room temperature
Procedure, shortened: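 Reactions ran 20 min at room temperature, pairing lipid micelles (25 μM PIP2, 300 μM PE, 0.02% Na-cholate, 10 mM MgCl2) with 20 μM ATP including [γ-32P]ATP. The enzyme was recombinant p101/p110γ (2.7 nM) with G protein β1/γ2 (57.7 nM). [32P]PIP3 product was stopped with H3PO4, filtered and scintillation counted.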

T1 sequence (P48736 whole entry, species assumed): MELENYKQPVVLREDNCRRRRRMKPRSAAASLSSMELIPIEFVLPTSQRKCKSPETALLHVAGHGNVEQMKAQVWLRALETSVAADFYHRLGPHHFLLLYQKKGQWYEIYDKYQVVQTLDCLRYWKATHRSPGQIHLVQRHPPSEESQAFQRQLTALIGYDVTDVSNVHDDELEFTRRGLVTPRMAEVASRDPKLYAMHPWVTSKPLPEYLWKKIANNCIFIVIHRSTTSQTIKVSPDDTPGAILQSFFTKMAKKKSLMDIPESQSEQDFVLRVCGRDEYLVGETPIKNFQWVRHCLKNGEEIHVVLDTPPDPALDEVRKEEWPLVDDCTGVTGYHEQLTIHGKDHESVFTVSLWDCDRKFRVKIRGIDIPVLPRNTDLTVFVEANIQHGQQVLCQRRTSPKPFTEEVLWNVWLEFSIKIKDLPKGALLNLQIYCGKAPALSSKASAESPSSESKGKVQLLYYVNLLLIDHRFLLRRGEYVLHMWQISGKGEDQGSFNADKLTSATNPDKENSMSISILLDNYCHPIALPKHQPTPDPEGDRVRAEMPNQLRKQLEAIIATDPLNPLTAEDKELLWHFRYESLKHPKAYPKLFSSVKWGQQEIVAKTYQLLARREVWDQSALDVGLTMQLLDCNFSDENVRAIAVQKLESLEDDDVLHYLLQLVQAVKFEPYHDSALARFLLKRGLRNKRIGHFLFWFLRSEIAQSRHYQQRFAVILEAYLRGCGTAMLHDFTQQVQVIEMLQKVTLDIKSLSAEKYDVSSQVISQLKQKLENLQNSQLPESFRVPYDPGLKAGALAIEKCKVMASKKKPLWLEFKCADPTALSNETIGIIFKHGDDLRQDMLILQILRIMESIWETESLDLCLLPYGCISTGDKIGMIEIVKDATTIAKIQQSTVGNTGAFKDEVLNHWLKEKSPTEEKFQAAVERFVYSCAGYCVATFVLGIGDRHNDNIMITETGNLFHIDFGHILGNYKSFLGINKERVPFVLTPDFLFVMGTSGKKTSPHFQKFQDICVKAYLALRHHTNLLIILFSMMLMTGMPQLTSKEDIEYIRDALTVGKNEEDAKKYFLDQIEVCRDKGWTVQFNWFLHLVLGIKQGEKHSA
T1 sequence (Q8WYR1 whole entry partner, species assumed): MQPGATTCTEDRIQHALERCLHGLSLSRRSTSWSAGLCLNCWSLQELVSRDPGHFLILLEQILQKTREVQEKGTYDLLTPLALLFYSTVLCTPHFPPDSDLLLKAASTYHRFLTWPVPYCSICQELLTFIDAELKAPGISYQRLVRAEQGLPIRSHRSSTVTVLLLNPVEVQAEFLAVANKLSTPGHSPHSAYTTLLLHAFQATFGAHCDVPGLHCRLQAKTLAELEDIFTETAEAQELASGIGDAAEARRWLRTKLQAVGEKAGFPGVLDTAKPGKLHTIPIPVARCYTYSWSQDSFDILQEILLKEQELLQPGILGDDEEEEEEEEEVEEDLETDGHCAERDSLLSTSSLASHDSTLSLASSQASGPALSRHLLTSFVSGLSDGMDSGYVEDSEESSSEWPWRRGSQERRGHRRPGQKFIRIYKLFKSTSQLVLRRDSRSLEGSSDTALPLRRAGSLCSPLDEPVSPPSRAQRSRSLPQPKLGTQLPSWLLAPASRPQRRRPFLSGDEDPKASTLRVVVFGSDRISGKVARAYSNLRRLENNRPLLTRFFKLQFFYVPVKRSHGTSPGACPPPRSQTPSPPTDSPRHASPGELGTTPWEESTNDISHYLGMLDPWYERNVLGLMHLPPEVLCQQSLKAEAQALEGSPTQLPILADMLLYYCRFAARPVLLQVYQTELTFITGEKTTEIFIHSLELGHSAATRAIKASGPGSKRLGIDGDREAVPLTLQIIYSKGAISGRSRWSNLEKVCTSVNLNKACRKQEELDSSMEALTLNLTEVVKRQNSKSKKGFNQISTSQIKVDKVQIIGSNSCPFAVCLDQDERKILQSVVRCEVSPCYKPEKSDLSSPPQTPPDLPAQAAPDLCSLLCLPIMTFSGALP

Row | Structure (SMILES) | IC50
1 | O=C1NC(=S)SC1=Cc1ccc2c(c1)N(Cc1ccc(OCc3ccccc3)cc1)C(=O)CO2 [Example 163, 4-(4-Benzyloxy-benzyl)-6-(4-oxo-2-thioxo-thiazolidin-5-ylidenemethyl)-4H-1,4-benzoxazin-3-one] | 30 nM
2 | O=C1NC(=S)SC1=Cc1ccc2c(c1)N(Cc1cccc(OC(F)F)c1)C(=O)CO2 [Example 164, 4-(3-Difluoromethoxy-benzyl)-6-(4-oxo-2-thioxo-thiazolidin-5-ylidenemethyl)-4H-1,4-benzoxazin-3-one] | 13 nM
3 | O=C1NC(=S)SC1=Cc1ccc2c(c1)N(Cc1cccc(SC(F)(F)F)c1)C(=O)CO2 [Example 165, 6-(4-Oxo-2-thioxo-thiazolidin-5-ylidenemethyl)-4-(3-trifluoromethylsulfanyl-benzyl)-4H-1,4-benzoxazin-3-one] | 15 nM
4 | O=C1NC(=S)SC1=Cc1ccc2c(c1)N(Cc1ccccc1OC(F)(F)F)C(=O)CO2 [Example 166, 6-(4-Oxo-2-thioxo-thiazolidin-5-ylidenemethyl)-4-(2-trifluoromethoxy-benzyl)-4H-1,4-benzoxazin-3-one] | 20 nM
5 | COc1ccc(CN2C(=O)COc3ccc(C=C4SC(=S)NC4=O)cc32)cc1C(F)(F)F [Example 167, 4-(4-Methoxy-3-trifluoromethyl-benzyl)-6-(4-oxo-2-thioxo-thiazolidin-5-ylidenemethyl)-4H-1,4-benzoxazin-3-one] | 10 nM
6 | O=C1NC(=S)SC1=Cc1ccc2c(c1)N(Cc1ccc(SC(F)(F)F)cc1)C(=O)CO2 [Example 168, 6-(4-Oxo-2-thioxo-thiazolidin-5-ylidenemethyl)-4-(4-trifluoromethylsulfanyl-benzyl)-4H-1,4-benzoxazin-3-one] | 12 nM
7 | O=C1NC(=S)SC1=Cc1ccc2c(c1)N(Cc1ccccc1SC(F)(F)F)C(=O)CO2 [Example 169, 6-(4-Oxo-2-thioxo-thiazolidin-5-ylidenemethyl)-4-(2-trifluoromethylsulfanyl-benzyl)-4H-1,4-benzoxazin-3-one] | 8 nM
8 | O=C1NC(=S)SC1=Cc1ccc2c(c1)N(Cc1cccc(Oc3ccccc3)c1)C(=O)CO2 [Example 170, 6-(4-Oxo-2-thioxo-thiazolidin-5-ylidenemethyl)-4-(3-phenoxy-benzyl)-4H-1,4-benzoxazin-3-one] | 9 nM
9 | O=C1NC(=S)SC1=Cc1ccc2c(c1)N(CC1CC3C=CC1C3)C(=O)CO2 (centres unmarked) [Example 171, 4-Bicyclo[2.2.1]hept-5-en-2-ylmethyl-6-(4-oxo-2-thioxo-thiazolidin-5-ylidenemethyl)-4H-1,4-benzoxazin-3-one] | 15 nM
10 | NC(=O)c1cccc(CN2C(=O)COc3ccc(C=C4SC(=S)NC4=O)cc32)c1 [Example 172, 3-[3-Oxo-6-(4-oxo-2-thioxo-thiazolidin-5-ylidenemethyl)-2,3-dihydro-1,4-benzoxazin-4-ylmethyl]-benzamide] | 145 nM
11 | CC(CN1C(=O)COc2ccc(C=C3SC(=S)NC3=O)cc21)c1ccccc1 (centres unmarked) [Example 173, 6-(4-Oxo-2-thioxo-thiazolidin-5-ylidenemethyl)-4-(2-phenyl-propyl)-4H-1,4-benzoxazin-3-one] | 39 nM
12 | O=C1NC(=S)SC1=Cc1ccc2c(c1)N(CCCCc1ccccc1)C(=O)CO2 [Example 174, 6-(4-Oxo-2-thioxo-thiazolidin-5-ylidenemethyl)-4-(4-phenyl-butyl)-4H-1,4-benzoxazin-3-one] | 2 nM
13 | O=C1NC(=S)SC1=Cc1ccc2c(c1)N(CCCCCc1ccccc1)C(=O)CO2 [Example 175, 6-(4-Oxo-2-thioxo-thiazolidin-5-ylidenemethyl)-4-(5-phenyl-pentyl)-4H-1,4-benzoxazin-3-one] | 4 nM
14 | NC(=O)c1ccc(CN2C(=O)COc3ccc(C=C4SC(=S)NC4=O)cc32)cc1 [Example 176, 4-[3-Oxo-6-(4-oxo-2-thioxo-thiazolidin-5-ylidenemethyl)-2,3-dihydro-1,4-benzoxazin-4-ylmethyl]-benzamide] | 59 nM

The remaining lines, values ahead:

Row | IC50 | Structure (SMILES)
15 | 25 nM | CC(=O)Nc1ccc(CN2C(=O)COc3ccc(C=C4SC(=S)NC4=O)cc32)cc1 [Example 177, N-{4-[3-Oxo-6-(4-oxo-2-thioxo-thiazolidin-5-ylidenemethyl)-2,3-dihydro-1,4-benzoxazin-4-ylmethyl]-phenyl}-acetamide]
16 | 4 nM | O=C1NC(=S)SC1=Cc1ccc2c(c1)N(Cc1ccc(Cl)c(Cl)c1)C(=O)CO2 [Example 178, 4-(3,4-Dichloro-benzyl)-6-(4-oxo-2-thioxo-thiazolidin-5-ylidenemethyl)-4H-1,4-benzoxazin-3-one]
17 | 7 nM | O=C1NC(=S)SC1=Cc1ccc2c(c1)N(Cc1ccc(Cl)cc1)C(=O)CO2 [Example 179, 4-(4-Chloro-benzyl)-6-(4-oxo-2-thioxo-thiazolidin-5-ylidenemethyl)-4H-1,4-benzoxazin-3-one]
18 | 9 nM | O=C1NC(=S)SC1=Cc1ccc2c(c1)N(Cc1ccccc1)C(=O)CO2 [Example 180, 4-Benzyl-6-(4-oxo-2-thioxo-thiazolidin-5-ylidenemethyl)-4H-1,4-benzoxazin-3-one]
19 | 10 nM | Cc1cc(C)cc(CN2C(=O)COc3ccc(C=C4SC(=S)NC4=O)cc32)c1 [Example 181, 4-(3,5-Dimethyl-benzyl)-6-(4-oxo-2-thioxo-thiazolidin-5-ylidenemethyl)-4H-1,4-benzoxazin-3-one]
20 | 165 nM | COc1ccc(CN2C(=O)COc3ccc(C=C4SC(=S)NC4=O)cc32)cc1 [Example 182, 4-(4-Methoxy-benzyl)-6-(4-oxo-2-thioxo-thiazolidin-5-ylidenemethyl)-4H-1,4-benzoxazin-3-one]
21 | 21 nM | O=C1NC(=S)SC1=Cc1ccc2c(c1)N(Cc1ccc([N+](=O)[O-])cc1)C(=O)CO2 [Example 183, 4-(4-Nitro-benzyl)-6-(4-oxo-2-thioxo-thiazolidin-5-ylidenemethyl)-4H-1,4-benzoxazin-3-one]
22 | 3 nM | CC(C)(C)c1ccc(CN2C(=O)COc3ccc(C=C4SC(=S)NC4=O)cc32)cc1 [Example 184, 4-(4-tert-Butyl-benzyl)-6-(4-oxo-2-thioxo-thiazolidin-5-ylidenemethyl)-4H-1,4-benzoxazin-3-one]
23 | 102 nM | O=C1NC(=S)SC1=Cc1ccc2c(c1)N(Cc1cc(C(F)(F)F)cc(C(F)(F)F)c1)C(=O)CO2 [Example 185, 4-(3,5-Bis-trifluoromethyl-benzyl)-6-(4-oxo-2-thioxo-thiazolidin-5-ylidenemethyl)-4H-1,4-benzoxazin-3-one]
24 | 315 nM | O=C1NC(=S)SC1=Cc1ccc2c(c1)N(CC(=O)c1ccc3c(c1)oc1ccccc13)C(=O)CO2 [Example 186, 4-(2-Dibenzofuran-3-yl-2-oxo-ethyl)-6-(4-oxo-2-thioxo-thiazolidin-5-ylidenemethyl)-4H-1,4-benzoxazin-3-one]
25 | 98 nM | O=C1NC(=S)SC1=Cc1ccc2c(c1)N(Cc1cc(F)cc(C(F)(F)F)c1)C(=O)CO2 [Example 187, 4-(3-Fluoro-5-trifluoromethyl-benzyl)-6-(4-oxo-2-thioxo-thiazolidin-5-ylidenemethyl)-4H-1,4-benzoxazin-3-one]
26 | 20 nM | O=C1NC(=S)SC1=Cc1ccc2c(c1)N(Cc1ccc3ccccc3c1)C(=O)CO2 [Example 188, 4-Naphthalen-2-ylmethyl-6-(4-oxo-2-thioxo-thiazolidin-5-ylidenemethyl)-4H-1,4-benzoxazin-3-one]
27 | 640 nM | O=C1NC(=S)SC1=Cc1cnc2c(c1)N(Cc1ccccc1)C(=O)CO2 [Example 189, 1-Benzyl-7-(4-oxo-2-thioxo-thiazolidin-5-ylidenemethyl)-1H-pyrido[2,3-b][1,4]oxazin-2-one; compound with ethane-1,2-diamine]
28 | 240 nM | CN1CC(=O)Nc2cc(C=C3SC(=S)NC3=O)ccc21 [Example 190, 4-Methyl-7-(4-oxo-2-thioxo-thiazolidin-5-ylidenemethyl)-3,4-dihydro-1H-quinoxalin-2-one]
29 | 7 nM | O=C1NC(=S)OC1=Cc1ccc2c(c1)N(Cc1ccc(Cl)c(Cl)c1)C(=O)CO2 [Example 191, 4-(3,4-Dichloro-benzyl)-6-(4-oxo-2-thioxo-oxazolidin-5-ylidenemethyl)-4H-1,4-benzoxazin-3-one]
30 | 8 nM | CS(=O)(=O)c1ccc(CN2C(=O)COc3ccc(C=C4SC(=S)NC4=O)cc32)cc1 [Example 192, 4-(4-Methanesulfonyl-benzyl)-6-(4-oxo-2-thioxo-thiazolidin-5-ylidenemethyl)-4H-1,4-benzoxazin-3-one]
31 | 6 nM | CS(=O)(=O)c1ccc(CN2C(=O)COc3ccc(C=C4SC(=S)NC4=O)cc32)cc1 [Example 193, 4-(4-Methanesulfonyl-benzyl)-6-(4-oxo-2-thioxo-thiazolidin-5-ylidenemethyl)-4H-1,4-benzoxazin-3-one, Potassium Salt]
32 | 6 nM | O=C1NC(=S)SC1=Cc1ccc2c(c1)N(Cc1ccc(Cl)c(C(F)(F)F)c1)C(=O)CO2 [Example 194, 4-(4-Chloro-3-trifluoromethylbenzyl)-6-(4-oxo-2-thioxo-thiazolidin-5-ylidenemethyl)-4H-1,4-benzoxazin-3-one, Potassium Salt]
33 | 1910 nM | O=C1COc2ncc(C=C3SC(=S)NC3=O)cc2N1 [Example 195, 7-(4-Oxo-2-thioxo-thiazolidin-5-ylidenemethyl)-1H-pyrido[2,3-b][1,4]oxazin-2-one]
34 | 26 nM | O=C1NC(=S)OC1=Cc1ccc2c(c1)N(Cc1ccc(Cl)c(C(F)(F)F)c1)C(=O)CO2 [Example 196, 4-(4-Chloro-3-trifluoromethyl-benzyl)-6-(4-oxo-2-thioxo-oxazolidin-5-ylidenemethyl)-4H-1,4-benzoxazin-3-one]
35 | 390 nM | CN1CC(=O)N(Cc2ccccc2)c2cc(C=C3SC(=S)NC3=O)ccc21 [Example 197, 1-Benzyl-4-methyl-7-(4-oxo-2-thioxo-thiazolidin-5-ylidenemethyl)-3,4-dihydro-1H-quinoxalin-2-one]
